Data on 1 compound can be found in US12527776B2, “Treatment of ciliopathies using inhibitors of glucosylceramide synthase (GCS)” (GENZYME CORPORATION, priority 2019, dated 2026).

The test system of assay [1] is Bbs2−/− mice. Put plainly: Retinal degeneration in Bbs2−/− mice (OCT, immunofluorescence). The class given is in vivo, mouse. Particulars: treatment for 5 months from one month of age. An excerpt:
(§1) A Bbs2^−/− mouse model has been described by Nishimura D Y et al. (Proc Natl Acad Sci, 101:16588-16593 (2004)) with exons 5-14 of Bbs2 replaced with a neomycin cassette. Mice were backcrossed into 129/SvJ background. Treated Bbs2^−/− mice were fed ad libitum with 0.033% w/w of Compound 1 incorporated in feed from the age of 1 month to 6 months. Bbs2^−/− and Wt control animals were fed regular 5053 chow (LabDiet). To establish metabolic disease, Bbs2^−/− mice were left untreated until four-months of age, and then treated with Compound 1 incorporated into feed for the fifth and sixth months.
A non-invasive imaging technique, optical coherence tomography (OCT) using the Bioptigen Envisu R2200 instrument, was used to generate a cross-sectional image of the retina with 2 micron resolution to measure the thickness of the retinal cell layers in vivo.
Paraffin-embedded samples of eyes from Wt and Bbs2^−/− mice were prepared and analysed as described supra. The primary antibodies used were rhodopsin (Thermo Scientific) and cone arrestin (EMD Millipore).

The subject of assay [2] is Bbs2−/− mice adipose tissue. Put plainly: RNA sequencing of adipose tissue of Bbs2−/− mice. It counts as in vivo, mouse. As to conditions: 0.033% w/w in feed from 1 to 6 months of age. As to the method: Total RNA was isolated from previously flash frozen adipose tissue dissected from four six-month old Wt (Wt #1-4), Bbs2^−/− (Bbs #1-4) or Bbs2^−/− treated with 0.033% w/w of Compound 1 (Bbs+Cmpd1 #1-4) in feed from 1 to 6 months of age using TRIzol (Thermo Fisher Scientific) and chloroform extractions. RNA samples were further purified with RNAeasy Mini Kit (Qiagen) to remove genomic DNA. The concentration and purity of RNA was assessed with a NanoDrop 8000 microspectrophotometer (Thermo Fisher Scientific). RNA integrity was then evaluated with a 4200 TapeStation System (Agilent Technologies).
The sequencing libraries were generated using the TruSeq Stranded mRNA Library Prep Kit as per the manufacturer recommendations (Illumina). Sequencing was performed using High Output NextSeq 500/550 v2.5 kits on an Illumina NextSeq 500 platform (2×75 bp paired-end reads).
Data analysis was performed with Array Studio V10.1 (Omicsoft Corporation, a Qiagen company) and mapped to Genome Reference Consortium Mouse Build 38. Heatmaps are generated using a Center Scale normalization algorithm on median normalized Log 2 expression values as per the software developer (Omicsoft).

In assay [3] the test system is human preadipocytes SQ cells with BBS1, BBS2 or BBS10 knocked-down. As to the kind of experiment: In vitro adipocyte differentiation assay. The class given is cell-based. As to conditions: 1.25-10 μM, 10 days differentiation. As to the method:
In Vitro Adipocyte Differentiation Assay
In order to examine the effect of Compound 1 on other mutations, we developed an in vitro differentiation assay in human preadipocyte cells. The BBS genes BBS1, BBS2, or BBS10 were knocked-down in cells using siRNA. For this, human preadipocytes SQ cells (Lonza) were plated in PGM-2 Preadipocyte Growth Medium-2 BulletKit, (Lonza) at 30,000 cells/cm^2 density and grown at 37° C. overnight. On the next day, cells were transfected with BBS1, BBS2 or BBS10 specific siRNA in OptiMem (Invitrogen) in the presence of Lipofectamine 2000 (Invitrogen) and differentiated in RDM-2 medium (Lonza) for 10 days with or without Compound 1 at concentrations of […], 5.0 and 10 μM (stock of Compound 1 was prepared in 100% ethanol and diluted with RDM-2 medium to final concentrations before adding to cells). A mixture of nonspecific siRNA (scrambled) was used as a negative control. Media was harvested for leptin analysis with Quantikine ELISA kit (RnD Systems, Inc.) at days 0, 5, 7 and 10 of adipocytes differentiation. Photomicroscopy (Axiovert 25, Zeiss with LASv4.2, Leica) was used to quantify lipid accumulation, which is evident by the size and quantity of lipid vacuoles in the cells.

In assay [4] the test system is Bbs2−/− mice. Put plainly: Metabolic parameters in Bbs2−/− mice. It counts as in vivo, mouse.
Description: as §1
Body composition was analyzed using an EchoMRI™. Measurements of the fat mass and of lean mass were recorded and percent of body fat was calculated. Body composition was calculated using the following formula: fat mass/(fat mass+lean mass).
Food weights were recorded from the food hopper and bedding. Average food consumption per animal per day was estimated using the following formula: [(food weight at start of period−(food weight at end of period in hopper[…])]/#animals in the cage/#days of observation.
Blood was collected during necropsy and incubated for 15 minutes at room temperature to allow clot formation. Clot was removed by centrifugation at 15,000 rpm for 5 minutes to collect serum. Leptin ELISA kit (R&D Systems) was used to measure leptin concentrations according to the manufacturer's instructions.
Total RNA was isolated from homogenized adipose tissue dissected from 6-month old mice using TRizol and chloroform extraction followed by the RNAeasy Mini Kit Purification (Qiagen), quantified using the NanoDrop 2300 system, and was reverse transcribed using High Capacity cDNA Reverse Transcription Kit (Applied Biosystems). Primers for Fas and Srebf1 were purchased from Applied Biosystems. Quantitative PCR was performed in duplicate for each sample on an Applied Biosystems RT-PCR machine using Taqman Universal Master Mix (Thermo Fisher) according to the manufacturer's instructions. Relative amounts of mRNA were determined using the Comparative CT Method for quantification and were normalized to GAPDH mRNA levels.
Automated digital image analysis was performed on whole adipose tissues using Visiopharm Image Analysis software (DK-2970 Hoersholm, Denmark, version 6.9.1). Two custom-written applications were created and run consecutively for each digital image. The first application detected adipose tissue using threshold classification and outlined the area as a Region of Interest (ROI). The second application used threshold to classify the tissue inside the ROI into three categories: Cytoplasm (cytoplasmic membrane), Adipose (Adipocyte), and Other (unwanted artifacts, large vessels, other tissue). Post processing steps included enclosing adipose with cytoplasm and selecting adequate adipose cells for counting by removing any adipose with a form factor less than 0.5.
Paraffin-embedded samples of brain tissue from Wt and Bbs2^−/− mice were cut and 4 micrometer sections were boiled in Antigen Retrieval solution (DAKO) in a pressure cooker to unmask antigens. Sections were blocked for 1 hour with 3% BSA followed by incubation with primary antibodies to adenylate cyclase III (Santa Cruz Biotechnology) diluted in 3% BSA overnight at 4° C. Alexa Fluor 488 secondary antibody (Invitrogen) was used at the dilution 1:1000. Images were acquired on a Leica DM5500B microscope fitted with ×40 and ×60 objectives using Leica Application Suite Advance Fluorescence software (Leica Microsystems).

Setting [5] is: 0.033% w/w in feed from 1 to 6 months of age.
Setting [6] is: established disease, 0.033% w/w in feed starting at 4 months of age, after one month.
[7] abbreviates: white adipose tissue, feed from 1 to 6 months of age.

Take `CC(C)(NC(=O)OC1CN2CCC1CC2)c1cccc(-c2ccc(F)cc2)c1` (stereo not shown) [Compound 1, 1-azabicyclo[2.2.2]oct-3-yl [2-(4′-fluorobiphenyl-3-yl)propan-2-yl]carbamate]: in the assay with Bbs2−/− mice [1], the “increase in the thickness of the ONL” value is roughly 2 fold and the “rod-cone specific staining (rhodopsin, cone arrestin)” value was “partial restoration/preservation of rod-cone specific staining”. In addition, the “expression of genes in adipogenesis, ciliogenesis and sphingolipid homeostasis pathways” value in assay [2] is on record as “normalizes the expression of genes”. Moreover, in assay [3], the leptin secretion entry is given as “reduction” and the lipid accumulation result was “reduction of lipid accumulation”. In the assay with Bbs2−/− mice [4] (setting [5]), the body fat result is listed as “significant decrease”, the body weight result is “significant decrease”, the food consumption result was “significant decrease” and the serum leptin result is given as “reduced to wild type levels”. Besides, the “cilia in the hypothalamus” value in the assay with Bbs2−/− mice [4] (Compound in feed) is reported as “preserved the hypothalamic cilia”. Moreover, in the assay on Bbs2−/− mice [4] (setting [6]), the body fat result is given as “decreased”, the body weight result is “decreased” and the serum leptin entry is listed as “decreased”. Further, the adipocyte size entry in the assay on Bbs2−/− mice [4] (established disease, after the two-month treatment) is listed as “decrease of adipocyte size”. Further, in the assay on Bbs2−/− mice [4] (setting [7]), the adipocyte size entry is recorded as “reduction of adipocyte size” and the “expression of pro-adipogenic gene Srebf1” value was “corrected upon treatment to the levels observed in Wt control”.
